From patent US20220313780A1, “METHODS AND COMPOSITIONS FOR TREATING INFLAMMATORY CONDITIONS” (THE SCRIPPS RESEARCH INSTITUTE, priority 2019, published 2022)

System: endothelial cells (EA.hy926)
Assay: Transendothelial Electric Resistance (TER) assay of thrombin-induced endothelial barrier disruption
Format: cell-based
Conditions: peptide at 5 to 50 nM
Text: The bottom curve in each panel of the figure is labeled as IIa for thrombin alone and represents the observed effects for thrombin (IIa) in the absence of peptide. In each panel, IIa was always present for each peptide added. The number in each panel indicates the concentration of each peptide for the respective curves. The peptide concentration of 0 is represented by the bottom curve labeled “IIa”. (A) the dose response inhibition over time of TER, expressed by Normalized Cell Index (NCI) by the PAR1 derived peptide P1(47-66) or TR47 using concentrations between 5 and 50 nM. (B) the dose response inhibition over time of NCI by the PAR3-derived peptide P3(42-65) or P3R using a 5 to 50 nM concentration range. (C) The NCI dose response inhibition over time by the short sequence PAR1-derived peptide P1(47-55) using a range of concentrations between 50 nM and 100 μM peptide. (D) The NCI dose response inhibition over time by the short sequence PAR3-derived peptide P3(42-54) using a range of concentrations between 1 μM and 200 μM peptide. (E) The NCI dose response inhibition over time by the hybrid peptide G10 in which the P1(47-55) peptide described in panel C was linked to a PAR3 peptide P3(51-65) by using 10 Gly residues. In this case the range of concentrations to study the dose response inhibition was between 3 and 50 nM peptide. An estimate for the percentage of activity for each peptide dilution in presence of thrombin can be quantified by obtaining the Area under the Curve (AUC) for each peptide dilution in comparison to the value for the AUC for thrombin alone in the absence of any peptide. These values were used to calculate the potency of each PAR peptide.
Transendothelial Electric Resistance (TER)-based assays were used to monitor the disruption of endothelial barrier integrity caused by thrombin. The anti-inflammatory, vasculoprotective actions of different PAR peptides for protecting against thrombin-induced vascular leakage on cultured endothelial cells (EA.hy926) were followed in real time using an iCELLigence machine (ACEA Biosciences Inc, San Diego, Calif.). EA.hy926 cells at a density of 10,000/well were pipetted into the wells of gold-plated microelectrode sensor (L8, Acea Biosciences). Subsequently, the increase of electrical resistance was monitored as cells grew and spread out on the microelectrodes to obtain confluence (reaching a plateau) over the TER plates connected to the recording instrument that detected in real time the changes in TER for each well. The effects of different PAR-derived peptides at the indicated concentrations were tested for dose-response inhibition of thrombin's effects when each of the peptide dilutions was added 30 min prior to the addition of thrombin (0.25 nM final in all wells). The percentage of inhibition was proportional to the increase in TER signal over time. Cell index values, reflecting TER signals, were normalized prior to addition of thrombin following manufacturer's directions.

## GAPPNSFEEFPFSALEGWTGATIT [P3R, PAR3-derived 24-mer peptide]
  effect on thrombin-induced disruption of endothelial barrier: had no significant effect
